This note sets out measurements from US20240390448A1, “USE OF TRADITIONAL CHINESE MEDICINE COMPOSITION IN PREPARATION OF DRUGS FOR TREATING NEUROGENIC PULMONARY EDEMA” (SHANDONG NEW TIME PHARMACEUTICAL CO., LTD., priority 2021, published 2024).

In this test the test system is spinal cord injury-induced neurogenic pulmonary edema. As to the kind of experiment: Model of spinal cord injury-induced neurogenic pulmonary edema (laminectomy and spinal cord injury). It counts as in vivo, ICR mice. The settings on record: mice, example 1 granule 18 g/kg intragastric, dexamethasone 0.025 mg/kg intramuscular, 2 consecutive days from 24 h after molding, lungs taken on 3rd day, n = 8, x ± s. From the text:
It is a typical molding method of an animal with neurogenic pulmonary edema by performing laminectomy on a rate to cause spine injury and thus inducing pulmonary edema of the mouse. The molding method is simple and easy to implement and high in success rate.
4-6 week old male ICR mice weighed 23-25 g were provided by the Lunan Pharmaceutical Co., Ltd and adaptively fed for one week before an experiment.
40 mice were taken and randomly divided into a sham surgery group, a model group, a dexamethasone group, an example 1 granule group, and a dexamethasone+example 1 granule group, with 8 mice in each group. The rats in the sham surgery group were subjected to laminectomy without spinal cord injury, while the rats in the model group and each administration group were subjected to laminectomy and spinal cord injury. […] The animals were anesthetized and sacrificed on the 3rd of the molding, the lungs were taken out, the wet weight was weighed, the lungs were placed in a 60° C. oven for drying for 48 h and taken out, the dry weight was weighed, and a ratio of wet weight/dry weight was calculated.

Turning to `C[C@@H]1C[C@H]2[C@@H]3CCC4=CC(=O)C=C[C@]4(C)[C@@]3(F)[C@@H](O)C[C@]2(C)[C@@]1(O)C(=O)CO` [Dexamethasone, dexamethasone], the “Lung wet weight/dry weight” value is listed as 4.92 ± 0.13.
